A word on the Ki: it is a dissociation constant, usually derived from enzyme kinetics or from competition with a known ligand.

This note sets out measurements from ChEMBL document CHEMBL5357064 (ACS Med Chem Lett, 2024).

Assay [1] addresses T1, Small conductance calcium-activated potassium channel protein 2 (Homo sapiens, UniProt Q9H2S1). Briefly: Displacement of [125I]apamin from SK2 (unknown origin) expressed in HEK293 cells assessed as inhibition constant incubated for 1 hr by liquid scintillation counting analysis. Type of assay: cell-based. (In a radioligand displacement assay an active substance lowers the binding of a labelled ligand.)

The species entered for a further assay is Homo sapiens. Nature of the assay: Selectivity ratio of Ki for human SK3 to Ki for human SK2.
Assay [2] concerns the target T1, Small conductance calcium-activated potassium channel protein 2. Nature of the assay: Displacement of [125I]apamin from human SK2 expressed in HEK293 cells assessed as inhibition constant incubated for 1 hr by liquid scintillation counting analysis. It counts as cell-based.
Assay [3] deals with Small conductance calcium-activated potassium channel protein 3 (Homo sapiens, UniProt Q9UGI6). Nature of the assay: Displacement of [125I]apamin from human SK3 expressed in HEK293 cells assessed as inhibition constant incubated for 1 hr by liquid scintillation counting analysis. Type of assay: cell-based.
Sequence of Small conductance calcium-activated potassium channel protein 3 (Q9UGI6 whole entry): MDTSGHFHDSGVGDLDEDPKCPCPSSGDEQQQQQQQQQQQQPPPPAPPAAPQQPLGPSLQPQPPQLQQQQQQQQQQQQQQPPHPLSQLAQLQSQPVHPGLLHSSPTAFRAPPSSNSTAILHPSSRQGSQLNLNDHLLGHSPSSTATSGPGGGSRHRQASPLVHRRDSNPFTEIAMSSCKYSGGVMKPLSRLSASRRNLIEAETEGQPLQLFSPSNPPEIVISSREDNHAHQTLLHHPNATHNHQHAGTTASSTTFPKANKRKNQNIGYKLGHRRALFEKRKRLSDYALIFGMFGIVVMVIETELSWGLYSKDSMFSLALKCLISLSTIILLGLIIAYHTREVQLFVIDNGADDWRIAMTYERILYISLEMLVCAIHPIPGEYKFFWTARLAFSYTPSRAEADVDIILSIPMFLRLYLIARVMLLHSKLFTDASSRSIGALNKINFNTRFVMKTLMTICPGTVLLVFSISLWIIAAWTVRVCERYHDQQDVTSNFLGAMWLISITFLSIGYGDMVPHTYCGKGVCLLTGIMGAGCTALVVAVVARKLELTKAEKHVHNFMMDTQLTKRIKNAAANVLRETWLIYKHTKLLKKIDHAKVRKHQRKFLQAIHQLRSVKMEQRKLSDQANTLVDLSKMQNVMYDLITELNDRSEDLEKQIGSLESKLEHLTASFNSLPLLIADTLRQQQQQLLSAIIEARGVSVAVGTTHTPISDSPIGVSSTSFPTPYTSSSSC

T1 sequence (Q9H2S1 whole entry): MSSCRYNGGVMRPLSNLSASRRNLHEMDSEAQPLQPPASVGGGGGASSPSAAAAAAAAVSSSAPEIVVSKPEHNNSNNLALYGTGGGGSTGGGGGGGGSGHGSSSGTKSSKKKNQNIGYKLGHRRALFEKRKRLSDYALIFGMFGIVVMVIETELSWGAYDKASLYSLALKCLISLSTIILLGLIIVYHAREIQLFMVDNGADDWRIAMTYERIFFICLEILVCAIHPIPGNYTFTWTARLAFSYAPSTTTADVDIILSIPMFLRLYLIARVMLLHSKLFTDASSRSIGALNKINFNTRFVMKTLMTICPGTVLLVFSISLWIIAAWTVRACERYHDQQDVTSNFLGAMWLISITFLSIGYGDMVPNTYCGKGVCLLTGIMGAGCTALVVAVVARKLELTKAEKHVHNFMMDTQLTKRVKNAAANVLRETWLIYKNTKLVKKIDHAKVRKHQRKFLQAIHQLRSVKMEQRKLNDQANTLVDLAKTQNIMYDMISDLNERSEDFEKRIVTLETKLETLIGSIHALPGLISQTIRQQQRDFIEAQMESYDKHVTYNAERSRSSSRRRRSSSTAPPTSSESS

In the case of `COc1cc2c(cc1OC)[C@H](CCC[C@H]1c3cc(OC)c(OC)cc3CCN1C)N(C)CC2`, in assay [1], the inhibition constant (Ki) came to 277 nM.

Turning to `COc1cc2c3cc1Oc1c(OC)c(OC)cc4c1[C@@H](Cc1ccc(O)c(c1)Oc1ccc(cc1)C[C@@H]3N(C)CC2)N(C)CC4` [BERBAMINE], the Ratio Ki in the assay listed under Homo sapiens turned out to be 2.17. The Ki was determined as 284 nM in assay [2] and 679 nM in assay [3].
